Our source for the speed of sound and mass density values is the NIST ThermoML archive (doi:10.1016/j.jct.2016.09.007).

Structures are written as SMILES. ± gives the expanded uncertainty stated by the source.

For series [1] the following is noted: 93.2 kPa, Liquid; for speed of sound: Frequency=3 MHz, Sing-around technique in a fixed-path interferometer; for mass density: Vibrating tube method.
Series [2] can be described thus: xn = mol fraction of the nth substance listed. Particulars: 93.2 kPa, Liquid, x2 = 0; for speed of sound: Frequency=3 MHz, Sing-around technique in a fixed-path interferometer; for mass density: Vibrating tube method.

For `CCCC(=O)[O-].CCCC[NH3+]` [n-butylammonium butanoate], the speed of sound came out at 1431.5 ± 5.3 m/s in series [1] (293.15 K); 1410.3 ± 5.3 m/s in series [1] (298.15 K); 1390.4 ± 5.3 m/s in series [1] (303.15 K); 1371.5 ± 5.3 m/s in series [1] (308.15 K); 1353.6 ± 5.3 m/s in series [1] (313.15 K). The mass density in series [1] (293.15 K) is reported as 928.794 ± 4 kg/m3; in series [1] (298.15 K), 925.509 ± 4 kg/m3; in series [1] (303.15 K), 922.217 ± 4 kg/m3; in series [1] (308.15 K), 918.88 ± 4 kg/m3; in series [1] (313.15 K), 915.567 ± 4 kg/m3.
For the molecule `CCCO` [propan-1-ol] + CCCC(=O)[O-].CCCC[NH3+], the speed of sound stood at 1223.1 ± 5.3 m/s in series [2] (293.15 K); 1205.8 ± 5.3 m/s in series [2] (298.15 K); 1188.6 ± 5.3 m/s in series [2] (303.15 K); 1171.6 ± 5.3 m/s in series [2] (308.15 K); 1154.9 ± 5.3 m/s in series [2] (313.15 K). Moreover, the mass density in series [2] (293.15 K) amounted to 803.625 ± 4 kg/m3; in series [2] (298.15 K) it was 799.62 ± 4 kg/m3; in series [2] (303.15 K), 795.582 ± 4 kg/m3; in series [2] (308.15 K), 791.511 ± 4 kg/m3; in series [2] (313.15 K) it was 787.407 ± 4 kg/m3.
`CCO` [ethanol]: the speed of sound stood at 1161 ± 5.2 m/s in series [1] (293.15 K); 1143.8 ± 5.2 m/s in series [1] (298.15 K); 1126.8 ± 5.2 m/s in series [1] (303.15 K); 1109.9 ± 5.2 m/s in series [1] (308.15 K); 1093.1 ± 5.2 m/s in series [1] (313.15 K). The mass density in series [1] (293.15 K) was 789.657 ± 4 kg/m3; in series [1] (298.15 K) it was 785.366 ± 4 kg/m3; in series [1] (303.15 K), 781.043 ± 4 kg/m3; in series [1] (308.15 K), 776.696 ± 4 kg/m3; in series [1] (313.15 K), 772.313 ± 4 kg/m3.
With `CCCCO` [butan-1-ol], the speed of sound is recorded as 1256.8 ± 5.3 m/s in series [1] (293.15 K); 1239.7 ± 5.3 m/s in series [1] (298.15 K); 1222.8 ± 5.3 m/s in series [1] (303.15 K); 1206.1 ± 5.3 m/s in series [1] (308.15 K); 1189.5 ± 5.2 m/s in series [1] (313.15 K). Moreover, the mass density is on record as 809.523 ± 4 kg/m3 in series [1] (293.15 K); 805.71 ± 4 kg/m3 in series [1] (298.15 K); 801.872 ± 4 kg/m3 in series [1] (303.15 K); 798.004 ± 4 kg/m3 in series [1] (308.15 K); 794.103 ± 4 kg/m3 in series [1] (313.15 K).
Turning to `CCCCO` [butan-1-ol] + CCCC(=O)[O-].CCCC[NH3+], the speed of sound in series [2] (293.15 K) amounted to 1256.8 ± 5.3 m/s; in series [2] (298.15 K), 1239.7 ± 5.3 m/s; in series [2] (303.15 K), 1222.8 ± 5.3 m/s; in series [2] (308.15 K) it was 1206.1 ± 5.3 m/s; in series [2] (313.15 K), 1189.5 ± 5.2 m/s. The mass density was 809.523 ± 4 kg/m3 in series [2] (293.15 K); 805.71 ± 4 kg/m3 in series [2] (298.15 K); 801.872 ± 4 kg/m3 in series [2] (303.15 K); 798.004 ± 4 kg/m3 in series [2] (308.15 K); 794.103 ± 4 kg/m3 in series [2] (313.15 K).
For the molecule `CCCCCO` [pentan-1-ol], the speed of sound is recorded as 1292.8 ± 5.3 m/s in series [1] (293.15 K); 1275.7 ± 5.3 m/s in series [1] (298.15 K); 1258.8 ± 5.3 m/s in series [1] (303.15 K); 1242.1 ± 5.3 m/s in series [1] (308.15 K); 1225.5 ± 5.3 m/s in series [1] (313.15 K). Also, the mass density in series [1] (293.15 K) is 814.807 ± 4 kg/m3; in series [1] (298.15 K), 811.144 ± 4 kg/m3; in series [1] (303.15 K) it was 807.455 ± 4 kg/m3; in series [1] (308.15 K), 803.736 ± 4 kg/m3; in series [1] (313.15 K), 799.99 ± 4 kg/m3.
In the case of `CCCCCO` [pentan-1-ol] + CCCC(=O)[O-].CCCC[NH3+], the speed of sound in series [2] (293.15 K) was determined as 1292.8 ± 5.3 m/s; in series [2] (298.15 K), 1275.7 ± 5.3 m/s; in series [2] (303.15 K) it was 1258.8 ± 5.3 m/s; in series [2] (308.15 K), 1242.1 ± 5.3 m/s; in series [2] (313.15 K) it was 1225.5 ± 5.3 m/s. The mass density in series [2] (293.15 K) came out at 814.807 ± 4 kg/m3; in series [2] (298.15 K) it was 811.144 ± 4 kg/m3; in series [2] (303.15 K) it was 807.455 ± 4 kg/m3; in series [2] (308.15 K) it was 803.736 ± 4 kg/m3; in series [2] (313.15 K), 799.99 ± 4 kg/m3.
Consider `CCO` [ethanol] + CCCC(=O)[O-].CCCC[NH3+], for which the speed of sound is 1161 ± 5.2 m/s in series [2] (293.15 K); 1143.8 ± 5.2 m/s in series [2] (298.15 K); 1126.8 ± 5.2 m/s in series [2] (303.15 K); 1109.9 ± 5.2 m/s in series [2] (308.15 K); 1093.1 ± 5.2 m/s in series [2] (313.15 K). In addition, the mass density in series [2] (293.15 K) was 789.657 ± 4 kg/m3; in series [2] (298.15 K), 785.366 ± 4 kg/m3; in series [2] (303.15 K), 781.043 ± 4 kg/m3; in series [2] (308.15 K) it was 776.696 ± 4 kg/m3; in series [2] (313.15 K), 772.313 ± 4 kg/m3.
As for `CO` [methanol] + CCCC(=O)[O-].CCCC[NH3+], the speed of sound in series [2] (293.15 K) came to 1119.1 ± 5.2 m/s; in series [2] (298.15 K), 1102.5 ± 5.2 m/s; in series [2] (303.15 K), 1086 ± 5.2 m/s; in series [2] (308.15 K), 1069.7 ± 5.2 m/s; in series [2] (313.15 K), 1053.6 ± 5.2 m/s. Further, the mass density is on record as 791.347 ± 4 kg/m3 in series [2] (293.15 K); 786.636 ± 4 kg/m3 in series [2] (298.15 K); 781.907 ± 4 kg/m3 in series [2] (303.15 K); 777.156 ± 4 kg/m3 in series [2] (308.15 K); 772.385 ± 4 kg/m3 in series [2] (313.15 K).
In the case of `CCCO` [propan-1-ol], the speed of sound in series [1] (293.15 K) is 1223.1 ± 5.3 m/s; in series [1] (298.15 K) it was 1205.8 ± 5.3 m/s; in series [1] (303.15 K), 1188.6 ± 5.3 m/s; in series [1] (308.15 K), 1171.6 ± 5.3 m/s; in series [1] (313.15 K) it was 1154.9 ± 5.3 m/s. The mass density is given as 803.625 ± 4 kg/m3 in series [1] (293.15 K); 799.62 ± 4 kg/m3 in series [1] (298.15 K); 795.582 ± 4 kg/m3 in series [1] (303.15 K); 791.511 ± 4 kg/m3 in series [1] (308.15 K); 787.407 ± 4 kg/m3 in series [1] (313.15 K).
Take `CO` [methanol]: the speed of sound is on record as 1119.1 ± 5.2 m/s in series [1] (293.15 K); 1102.5 ± 5.2 m/s in series [1] (298.15 K); 1086 ± 5.2 m/s in series [1] (303.15 K); 1069.7 ± 5.2 m/s in series [1] (308.15 K); 1053.6 ± 5.2 m/s in series [1] (313.15 K). For the same molecule, the mass density in series [1] (293.15 K) was 791.347 ± 4 kg/m3; in series [1] (298.15 K), 786.636 ± 4 kg/m3; in series [1] (303.15 K) it was 781.907 ± 4 kg/m3; in series [1] (308.15 K) it was 777.156 ± 4 kg/m3; in series [1] (313.15 K), 772.385 ± 4 kg/m3.

Usually speed of sound stands for the propagation velocity of pressure waves in the medium. As a reminder, the mass density is mass per unit of volume.
